Source: patent US10647673B2, “Acetophenone compound, preparation method thereof, and application thereof in fatty liver prevention and treatment” (Nanjing Bioenergy Medicine Science & Technology Co., Ltd., priority 2017, dated 2020)
“Also recorded” adds a separate entry of the source.

How the values were obtained:
Assay type in all cases: in vivo
[1] = test system: fatty liver of the SD rats; assay: Pathological sections and grading of fatty liver of SD rats; details: compounds 80 mg/kg, Sim 10 mg/kg, OCA 10 mg/kg
Method: (§1) 500 g of lard oil was taken, placed in a container, and heated to melt. When the temperature rose to 100° C., it was added with 200 g of cholesterol to dissolve completely, and then further added with 20 g of propylthiouracil. The resulted mixture was stirred well, and added with 500 ml of Tween 80 after dissolution, resulting in an oil phase. At the same time, 600 mL of distilled water and 400 mL of 1,2-propanediol were taken and heated to 60° C. in a water bath, then were added with 40 g of sodium deoxycholate. The resulted mixture was stirred well until realizing complete dissolution, so as to give an aqueous phase. The aqueous phase was added into the oil phase and mixed well to give a lipid emulsion. The lipid emulsion was heated in a water bath of 37° C. before intragastric administration to animals.
(§2) An appropriate amount of pharmaceutical was weighed, added with 0.5% CMC-Na, and mixed homogeneously by grinding. There are groups for Compound 01 (80 mg/kg), Compound 02 (80 mg/kg), Compound 03 (80 mg/kg), Compound 04 (80 mg/kg), Compound 05 (80 mg/kg), Compound 06 (80 mg)/kg), Compound 07 (80 mg/kg), Compound 08 (80 mg/kg), Compound 09 (80 mg/kg), Compound 10 (80 mg/kg), Compound 11 (80 mg/kg), Compound 12 (80 mg/kg), Compound 13 (80 mg/kg), Compound 14 (80 mg/kg), Compound 15 (80 mg/kg), Compound 16 (80 mg/kg), Compound 17 (80 mg/kg), Compound 18 (80 mg/kg), Compound 19 (80 mg/kg), Compound 20 (80 mg/kg), Compound 21 (80 mg/kg), and Compound 22 (80 mg/kg).
(§3) Male SD rats weighing 180-200 g were fed adaptively for 7 days. Based on body weight, 10 animals were used as control and the remaining animals were intragastrically administered with the lipid emulsion every day, 1 ml/100 g body weight for 14 days. After fasting for 12 hours, 1 mL of blood was collected from the orbits of the animals, and was determined by Hitachi Automatic Biochemical Analyzer 7080 for serum cholesterol (CHO), triglyceride (TG), low density lipoprotein (LDL-C) and high density lipoprotein (HDL-C).
(§4) The modeled rats were continued with the intragastric administration of the lipid emulsion. At the same time, the pharmaceutical-administered groups were administrated with a corresponding dose of pharmaceuticals, while the Model group was administrated with an equal volume of solvent. The pharmaceutical-administered groups were administrated with the lipid emulsion in the morning, and with the pharmaceuticals in the afternoon. The animals were measured for the body weight once a week, and were observed. After 14 days of continuous administration, 1 mL of blood was collected from the orbits, and was determined for the contents of triglyceride, cholesterol, low density lipoprotein and high density lipoprotein in blood serum.

[2] = test system: nutritive obesity C57 mice; assay: Weight loss experiment in nutritive obesity C57 mice; parameters: key to body weight of mice: body weight in g; details: for body weight of mice: high-fat diet, orlistat 40 mg/kg, Compounds 13 and 14 80 mg/kg intragastric, x ± s, n = 6
Description: C57 mice, male, 18-20 g of body weight. The mice were randomly divided into Control group, Model group, Orlistat group, Compound 13 group and Compound 14 group, with 6 mice in each group.
(§5) appropriate amounts of orlistat, Compound 13 and Compound 14 were weighed respectively, added with 0.5% CMC-Na and grinded to dissolve.
The mice in Control group were fed with normal diet, and the other mice were fed with high-fat diet. All of the mice had free access to water. After one week of feeding, the pharmaceuticals were intragastrically administrated. The dose was 40 mg/kg body weight for orlistat, 80 mg/kg for Compounds 13 and 14. The body weight of the mice was weighed every week during the experiment which lasted for 28 days.

ob/ob mice = assay: Weight loss experiment in ob/ob mice; details: for body weight of ob/ob mice: orlistat 40 mg/kg, other pharmaceuticals 80 mg/kg intragastric, x ± s, n = 6
Description: […] ob/ob mice, male, 18-20 g of body weight, fed adaptively for one week before use. The mice were randomly divided into Control group, Model group, Orlistat group, Compound 13 group and Compound 14 group, with 6 mice in each group.
as §5
After feeding for one week, the mice were intragastrically administrated with the pharmaceuticals except the mice of Control group. The dose was 40 mg/kg body weight for orlistat, 80 mg/kg for the other pharmaceuticals. The body weight of the mice was weighed every week during the experiment which lasted for 28 days.

[3] = test system: Fatty Liver Diseases of SD Rats; assay: Blood serum lipids in SD rats given lipid emulsion (fatty liver model); parameters: unit not given here; details: blood serum after 14 days of continuous administration; compounds 80 mg/kg, Obeticholic Acid 10 mg/kg, intragastric; lipid emulsion continued
Method: as §1, §2, §3, §4

[4] = test system: Fatty Liver Diseases of SD Rats; assay: Liver functions of lipid-emulsion SD rats after administration for 4 weeks; parameters: unit not given here; details: compounds 80 mg/kg, Obeticholic Acid 10 mg/kg
[5] = Experiment Day 0, in g (unit assumed)
[6] = Experiment Day 7, in g (unit assumed)
[7] = Experiment Day 14, in g (unit assumed)
[8] = Experiment Day 21, in g (unit assumed)
[9] = Experiment Day 28, in g (unit assumed)

Row | Compound | Pathological grading: Steatotic hepatocytes ([1]; animal 1) | Pathological grading: Steatotic hepatocytes ([1]; animal 3) | Pathological grading: Steatotic hepatocytes ([1]; animal 4) | body weight of mice [2, 5] | body weight of mice [2, 6] | body weight of mice [2, 7] | body weight of mice [2, 8] | body weight of ob/ob mice (ob/ob mice; [5]) | body weight of ob/ob mice (ob/ob mice; [6]) | body weight of ob/ob mice (ob/ob mice; [7]) | body weight of ob/ob mice (ob/ob mice; [8]) | CHO (serum cholesterol) [3] | HDL-C (high density lipoprotein) [3] | LDL-C (low density lipoprotein) [3] | TG (triglyceride) [3] | ALP [4] | ALT [4] | AST [4] | TBIL [4] | Pathological grading: Steatotic hepatocytes ([1]; animal 2) | further results
1 | CC(=O)c1ccc(O)c(OC(=O)c2cccnc2)c1 [Compound 14] | + (25-45% of hepatocytes undergoing steatosis) | + (25-45% of hepatocytes undergoing steatosis) | + (25-45% of hepatocytes undergoing steatosis) | 17.21 ± 1.57 | 19.83 ± 0.71 | 20.87 ± 0.75 | 21.89 ± 0.77 | 20.79 ± 0.39 | 21.22 ± 0.38 | 22.18 ± 0.42 | 24.10 ± 0.45 |  |  |  |  |  |  |  |  |  | Pathological grading: Infiltration of inflammatory cells ([1]; animal 1): 0; body weight of mice ([2]; Experiment Day 28): 22.92 ± 0.88; effect on body weight compared with Orlistat (in words) ([2]; nutritive obesity C57 mice, 80 mg/kg vs orlistat 40 mg/kg): better effect than Orlistat; effect on body weight (in words) ([2]; nutritive obesity C57 mice, 80 mg/kg, as compared with Model group, 80 mg/kg): obvious effects on weight loss; also recorded: significantly decrease the body weight of the mice from Day 14; body weight of ob/ob mice (ob/ob mice; Experiment Day 28): 26.17 ± 0.86; effect on body weight compared with Orlistat (in words) (ob/ob mice; ob/ob mice, 80 mg/kg vs orlistat 40 mg/kg): better effect than Orlistat; effect on body weight (in words) (ob/ob mice; ob/ob mice, 80 mg/kg, as compared with Model group, 80 mg/kg): obvious effects on weight loss; also recorded: significantly decrease the body weight of the ob/ob mice
2 | CCCCCCCCCCC[C@@H](C[C@@H]1OC(=O)[C@H]1CCCCCC)OC(=O)[C@H](CC(C)C)NC=O [Orlistat, reference compound] |  |  |  | 18.28 ± 0.65 | 20.29 ± 0.63 | 21.39 ± 0.70 | 22.51 ± 0.73 | 20.53 ± 0.50 | 22.82 ± 1.79 | 23.98 ± 1.85 | 26.86 ± 1.99 |  |  |  |  |  |  |  |  |  | body weight of mice [2, 9]: 24.47 ± 0.79; body weight of ob/ob mice (ob/ob mice; [9]): 31.23 ± 2.31
3 | Cc1ccc(C)c(OCCCC(C)(C)C(=O)NCC(=O)c2ccc(O)c(O)c2)c1 [Compound 21] | + (25-45% of hepatocytes undergoing steatosis) | + (25-45% of hepatocytes undergoing steatosis) | + (25-45% of hepatocytes undergoing steatosis) |  |  |  |  |  |  |  |  | 4.37 ± 0.62 | 1.99 ± 0.44 | 2.09 ± 0.68 | 0.80 ± 0.13 | 1074.00 ± 181.32 | 65.6 ± 27.20 | 184.40 ± 18.68 | 3.23 ± 1.35 | 0 | Pathological grading: Infiltration of inflammatory cells ([1]; animal 4): 0; Pathological grading: Steatotic hepatocytes ([1]; animal 5): + (25-45% of hepatocytes undergoing steatosis)
4 | CC[C@H]1[C@@H](O)[C@@H]2[C@H](CC[C@]3(C)[C@@H]([C@H](C)CCC(=O)O)CC[C@@H]23)[C@@]2(C)CC[C@@H](O)C[C@@H]12 [Obeticholic Acid, Obeticholic acid, reference compound] | ++ (45-65% of hepatocytes undergoing steatosis) | ++ (45-65% of hepatocytes undergoing steatosis) | +++ (65-85% or more of hepatocytes undergoing steatosis) |  |  |  |  |  |  |  |  | 4.74 ± 0.34 | 1.68 ± 0.22 | 2.85 ± 1.00 | 0.52 ± 0.06 | 999.60 ± 354.29 | 136.40 ± 62.68 | 248.20 ± 156.61 | 4.06 ± 1.40 | ++ (45-65% of hepatocytes undergoing steatosis) | Pathological grading: Steatotic hepatocytes ([1]; animal 5): ++ (45-65% of hepatocytes undergoing steatosis)
